pIC50: −log10 of the molar value.
Target: T1, full-length beta-Catenin (Uniprot ID P35222) (Homo sapiens, UniProt P35222)
T1 construct: 10 nM full-length beta-Catenin (Uniprot ID P35222)
T1 sequence (P35222 1-781): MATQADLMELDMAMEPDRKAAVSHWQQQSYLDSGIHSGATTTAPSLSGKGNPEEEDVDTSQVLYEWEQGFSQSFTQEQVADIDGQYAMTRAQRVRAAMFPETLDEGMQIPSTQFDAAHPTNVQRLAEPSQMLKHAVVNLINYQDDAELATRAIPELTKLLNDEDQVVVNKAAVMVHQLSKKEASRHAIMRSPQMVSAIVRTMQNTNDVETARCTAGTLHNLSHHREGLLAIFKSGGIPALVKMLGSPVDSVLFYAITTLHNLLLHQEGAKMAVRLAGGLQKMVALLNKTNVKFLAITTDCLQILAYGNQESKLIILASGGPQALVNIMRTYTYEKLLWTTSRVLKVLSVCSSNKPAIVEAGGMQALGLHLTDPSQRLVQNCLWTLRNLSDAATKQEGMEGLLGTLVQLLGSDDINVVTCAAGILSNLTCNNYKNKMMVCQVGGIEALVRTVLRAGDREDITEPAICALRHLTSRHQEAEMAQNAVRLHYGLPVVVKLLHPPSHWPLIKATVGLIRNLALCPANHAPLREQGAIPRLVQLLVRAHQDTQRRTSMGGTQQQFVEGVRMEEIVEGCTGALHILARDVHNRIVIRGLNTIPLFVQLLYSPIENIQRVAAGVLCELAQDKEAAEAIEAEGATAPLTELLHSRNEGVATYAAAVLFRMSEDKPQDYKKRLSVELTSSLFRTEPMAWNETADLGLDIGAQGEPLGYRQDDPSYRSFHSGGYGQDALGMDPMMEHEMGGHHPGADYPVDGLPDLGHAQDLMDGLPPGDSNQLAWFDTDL
Test: Fluorescence polarization IC50 (beta-catenin / 5FAM-TCF4 10-53 competition)
Assay type: binding
Details: fluorescence polarization; read-out: beta-Catenin FP IC50

pIC50	SMILES
5.85	CC(=O)N1CCC[C@]12CC=CCCCC1(CCCC=CCCCOC(=O)N3CC[C@@](C(=O)N[C@@H](Cc4ccsc4)C(=O)N[C@@H](Cc4csc5ccccc45)C(=O)N[C@@H](CCC(N)=O)C(N)=O)(C3)NC(=O)[C@H](CC(N)=O)NC(=O)[C@H](Cc3ccccc3)NC(=O)[C@H](C)NC(=O)[C@H](C)NC(=O)[C@H](CCCNC(=N)N)NC(=O)[C@H](CC(N)=O)NC1=O)NC(=O)[C@H](CC(C)(C)C)NC(=O)[C@H](CC(=O)O)NC2=O (stereo partly drawn) [I-1892, Ac-PL3-Asp-Npg-B5-Asn-Arg-Ala-Ala-Phe-Asn-PyrS2-3Thi-BztA-Gln-NH2]
7.38	CC(=O)N1CCC[C@]12CC=CCCCC1(CCCC=CCCCOC(=O)N3CC[C@@](C(=O)N[C@@H](Cc4ccsc4)C(=O)N[C@@H](Cc4c[nH]c5cccc(F)c45)C(=O)N[C@@H](CCC(N)=O)C(N)=O)(C3)NC(=O)[C@H](CC(N)=O)NC(=O)[C@H](Cc3ccccc3)NC(=O)[C@H](C)NC(=O)[C@H](C)NC(=O)[C@H](CC(=O)O)NC(=O)[C@H](CC(=O)O)NC1=O)NC(=O)[C@H](CC(C)(C)C)NC(=O)[C@H](CC(=O)O)NC2=O (stereo partly drawn) [I-2178, Ac-PL3-Asp-Npg-B5-Asp-Asp-Ala-Ala-Phe-Asn-PyrS2-3Thi-4FW-Gln-NH2]
5.24	CC(=O)N1CCC[C@]12CC=CCCCC1(CCCC=CCCCOC(=O)N3CC[C@@](C(=O)N[C@@H](Cc4ccsc4)C(=O)N[C@@H](Cc4csc5ccccc45)C(=O)N[C@@H](CCC(N)=O)C(N)=O)(C3)NC(=O)[C@H](CC(N)=O)NC(=O)[C@H](Cc3ccccc3)NC(=O)[C@H](C)NC(=O)[C@H](C)NC(=O)[C@H]([C@@H](C)O)NC(=O)[C@H](CC(N)=O)NC1=O)NC(=O)[C@H](CC(C)(C)C)NC(=O)[C@H](Cc1ccccc1C(=O)O)NC2=O (single isomer, unassigned) [I-2136, Ac-PL3-2COOHF-Npg-B5-Asn-Thr-Ala-Ala-Phe-Asn-PyrS2-3Thi-BztA-Gln-NH2]
6.44	CC(=O)N1CCC[C@]12CC=CCCCC1(CCCC=CCCCOC(=O)N3CC[C@@](C(=O)N[C@@H](Cc4ccccc4)C(=O)N[C@@H](Cc4csc5ccccc45)C(=O)N[C@@H](CCC(N)=O)C(N)=O)(C3)NC(=O)[C@H](Cc3c[nH]cn3)NC(=O)[C@H](Cc3ccccc3)NC(=O)[C@H](C)NC(=O)[C@H](C)NC(=O)[C@H](CCC(N)=O)NC(=O)[C@H](CC(=O)O)NC1=O)NC(=O)[C@H](CC(C)(C)C)NC(=O)[C@H](CC(N)=O)NC2=O (stereo partly drawn) [I-2440, Ac-PL3-Asn-Npg-B5-Asp-Gln-Ala-Ala-Phe-His-PyrS2-Phe-BztA-Gln-NH2]
5.91	CC(=O)N1CCC[C@]12CCCCC1(CCCCCCOC(=O)N3CC[C@@](C(=O)N[C@@H](Cc4ccsc4)C(=O)N[C@@H](Cc4csc5ccccc45)C(=O)N[C@@H](CCC(N)=O)C(N)=O)(C3)NC(=O)[C@H](CC(C)C)NC(=O)[C@H](Cc3ccccc3)NC(=O)[C@H](C)NC(=O)[C@H](C)NC(=O)[C@H](CC(=O)O)NC(=O)[C@H](CC(=O)O)NC1=O)NC(=O)[C@H](CC(C)(C)C)NC(=O)[C@H](CC(=O)O)NC2=O (stereo partly drawn) [I-2160, Ac-PL3-Asp-Npg-B3-Asp-Asp-Ala-Ala-Phe-Leu-PyrS2-3Thi-BztA-Gln-NH2]
6.01	CC(=O)N1CCC[C@]12CC=CCCCC1(CCCC=CCCCOC(=O)N3CC[C@@](C(=O)N[C@@H](Cc4ccsc4)C(=O)N[C@@H](Cc4csc5ccccc45)C(=O)N[C@@H](Cc4c[nH]c5ccccc45)C(N)=O)(C3)NC(=O)[C@H](CC(N)=O)NC(=O)[C@H](Cc3ccccc3)NC(=O)[C@H](C)NC(=O)[C@H](C)NC(=O)[C@H]([C@@H](C)O)NC(=O)[C@H](CC(N)=O)NC1=O)NC(=O)[C@H](CC(C)(C)C)NC(=O)[C@H](CC(=O)O)NC2=O (stereo partly drawn) [I-2139, Ac-PL3-Asp-Npg-B5-Asn-Thr-Ala-Ala-Phe-Asn-PyrS2-3Thi-BztA-Trp-NH2]
6.38	CC(=O)N1CCC[C@H]1C(=O)N[C@@H](CC(=O)O)C(=O)N[C@@H](CC(C)(C)C)C(=O)N[C@]1(C)CCCCCCCCOC(=O)N2CC[C@@](C(=O)N[C@@H](Cc3ccsc3)C(=O)N[C@@H](Cc3csc4ccccc34)C(=O)N[C@@H](CCC(N)=O)C(N)=O)(C2)NC(=O)[C@H](CC(C)C)NC(=O)[C@H](Cc2ccccc2)NC(=O)[C@H](C)NC(=O)[C@H](C)NC(=O)[C@H](CC(=O)O)NC(=O)[C@H](CC(=O)O)NC1=O [I-1810, Ac-Pro-Asp-Npg-R5-Asp-Asp-Ala-Ala-Phe-Leu-PyrS2-3Thi-BztA-Gln-NH2]
5.84	CC(=O)N1CCC[C@]12CC=CCCCC1(CCCC=CCCCOC(=O)N3CC[C@](C(=O)N[C@@H](Cc4ccsc4)C(=O)N[C@@H](Cc4csc5ccccc45)C(=O)N[C@@H](CCC(N)=O)C(N)=O)(C3)NC(=O)[C@H](CC(C)C)NC(=O)[C@H](Cc3ccccc3)NC(=O)[C@H](C)NC(=O)[C@H](C)NC(=O)[C@H](CC(=O)O)NC(=O)[C@H](CC(=O)O)NC1=O)NC(=O)[C@H](CC(C)(C)C)NC(=O)[C@H](CC(=O)O)NC2=O (stereo partly drawn) [I-2019, Ac-PL3-Asp-Npg-B5-Asp-Asp-Ala-Ala-Phe-Leu-PyrR2-3Thi-BztA-Gln-NH2]

The next lines start with the compound.

SMILES	pIC50
CC(=O)N1CCC[C@]12CC=CCCCC1(CCCC=CCCCOC(=O)N3CC[C@@](C(=O)N[C@@H](Cc4ccccc4)C(=O)N[C@@H](Cc4csc5ccccc45)C(=O)N[C@@H](CCC(N)=O)C(N)=O)(C3)NC(=O)[C@H](CC(C)C)NC(=O)[C@H](Cc3ccc(-c4cccnc4)cc3)NC(=O)[C@H](C)NC(=O)[C@H](C)NC(=O)[C@H](CC(=O)O)NC(=O)[C@H](CC(=O)O)NC1=O)NC(=O)[C@H](CC(C)(C)C)NC(=O)[C@H](CC(=O)O)NC2=O (stereo partly drawn) [I-1490, Ac-PL3-Asp-Npg-B5-Asp-Asp-Ala-Ala-[3Py]4SF-Leu-PyrS2-Phe-BztA-Gln-NH2]	6.65
CC(=O)NCCCC[C@H](NC(=O)[C@H](Cc1csc2ccccc12)NC(=O)[C@H](Cc1ccsc1)NC(=O)[C@]12CCN(C1)C(=O)OCCCCCCCCC1(CCCCCC[C@]3(CCCN3C(C)=O)C(=O)N[C@@H](CC(=O)O)C(=O)N[C@@H](CC(C)(C)C)C(=O)N1)C(=O)N[C@@H](CC(=O)O)C(=O)N[C@@H](CN(CC(=O)O)CC(F)(F)F)C(=O)N[C@@H](C)C(=O)N[C@@H](C)C(=O)N[C@@H](Cc1ccccc1)C(=O)N[C@@H](CC(C)C)C(=O)N2)C(N)=O (stereo partly drawn) [I-1719, Ac-PL3-Asp-Npg-B5-Asp-TfeGA-Ala-Ala-Phe-Leu-PyrS2-3Thi-BztA-AcLys-NH2]	6.73
CC(=O)N1CCC[C@]12CC=CCCCC1(CCCC=CCCCOC(=O)N3CC[C@@](C(=O)N[C@@H](Cc4ccccc4Cl)C(=O)N[C@@H](Cc4csc5ccccc45)C(=O)N[C@@H](CCC(N)=O)C(=O)N[C@H](CO)CC(C)C)(C3)NC(=O)[C@H](CC(C)C)NC(=O)[C@H](Cc3ccccc3)NC(=O)[C@H](C)NC(=O)[C@H](C)NC(=O)[C@H](Cc3cccc(C(=O)O)c3)NC(=O)[C@H](CC(=O)O)NC1=O)NC(=O)[C@H](CC(C)(C)C)NC(=O)[C@H](CC(=O)O)NC2=O (stereo partly drawn) [I-1676, Ac-PL3-Asp-Npg-B5-Asp-3COOHF-Ala-Ala-Phe-Leu-PyrS2-2C1F-BztA-Gln-Leuo1]	7.04
CC(=O)N1CCC[C@]12CC=CCCCC1(CCCC=CCCCOC(=O)N3CC[C@@](C(=O)N[C@@H](Cc4ccsc4)C(=O)N[C@@H](Cc4csc5ccccc45)C(=O)N[C@H](C(N)=O)C(C)C)(C3)NC(=O)[C@H](CC(C)C)NC(=O)[C@H](Cc3ccccc3)NC(=O)[C@H](C)NC(=O)[C@H](C)NC(=O)[C@H](CN(CC(=O)O)CC(F)(F)F)NC(=O)[C@H](CC(=O)O)NC1=O)NC(=O)[C@H](CC(C)(C)C)NC(=O)[C@H](CC(=O)O)NC2=O (stereo partly drawn) [I-1752, Ac-PL3-Asp-Npg-B5-Asp-TfeGA-Ala-Ala-Phe-Leu-PyrS2-3Thi-BztA-Val-NH2]	7.06
CC(=O)N1CCC[C@]12CC=CCCCC1(CCCC=CCCCOC(=O)N3CC[C@@](C(=O)N[C@@H](Cc4ccsc4)C(=O)N[C@@H](Cc4csc5ccccc45)C(=O)N[C@@H](CCC(N)=O)C(=O)N[C@@H](CCCCNC(=O)CC[C@@H](C)[C@H]4CC[C@H]5[C@@H]6CC[C@@H]7C[C@H](O)CC[C@]7(C)[C@H]6CC[C@]45C)C(N)=O)(C3)NC(=O)[C@H](CC(C)C)NC(=O)[C@H](Cc3ccccc3)NC(=O)[C@H](C)NC(=O)[C@H](C)NC(=O)[C@H](CC(=O)O)NC(=O)[C@H](CC(=O)O)NC1=O)NC(=O)[C@H](CC(C)(C)C)NC(=O)[C@H](CC(=O)O)NC2=O (stereo partly drawn) [I-1477, Ac-PL3-Asp-Npg-B5-Asp-Asp-Ala-Ala-Phe-Leu-PyrS2-3Thi-BztA-Gln-[lithocholate]-Lys-NH2]	6.83
CC(=O)N1CCC[C@]12CC=CCCCC1(CCCC=CCCCOC(=O)N3CC[C@@](C(=O)N[C@@H](Cc4ccccc4Cl)C(=O)N[C@@H](Cc4csc5ccccc45)C(=O)N[C@@H](CCC(N)=O)C(=O)N[C@@H](C)CO)(C3)NC(=O)[C@H](CC(C)C)NC(=O)[C@H](Cc3ccccc3)NC(=O)[C@H](C)NC(=O)[C@H](C)NC(=O)[C@H](Cc3cccc(C(=O)O)c3)NC(=O)[C@H](CC(=O)O)NC1=O)NC(=O)[C@H](CC(C)(C)C)NC(=O)[C@H](CC(=O)O)NC2=O (stereo partly drawn) [I-1673, Ac-PL3-Asp-Npg-B5-Asp-3COOHF-Ala-Ala-Phe-Leu-PyrS2-2C1F-BztA-Gln-Alao1]	7.55

Source: US20240116985A1, “STAPLED PEPTIDES AND METHODS THEREOF” (priority 2020, published 2024)
